{"source": "patent US12582617B2", "about": "“Methods for treating cancer” (RADIUS PHARMACEUTICALS, INC., priority 2015, dated 2026)", "key": {"[1]": {"assay": "Concentration in plasma and intracranial tumor (LC-MS/MS)", "type": "in vivo", "conditions": "athymic nude, mouse, in vivo, 120 mg/kg", "description": "The endpoint was defined as a mortality or 3× survival of the control group, whichever comes first. Treatment tolerability was assessed by body weight measurements and frequent observation for clinical signs of treatment-related adverse effects. Animals with weight loss exceeding 30% for one measurement, or exceeding 25% for three measurements, were humanely euthanized and classified as a treatment-related death. Acceptable toxicity was defined as a group-mean body weight loss of less than 20% during the study and not more than one treatment-related death among ten treated animals, or 10%. At the end of study animals were euthanized by terminal cardiac puncture under isoflurane anesthesia."}, "[2]": {"system": "proliferation marker Ki67", "assay": "Proliferation marker Ki67 in MCF7 xenograft tumors", "type": "in vivo, Balb/C-Nude mice", "conditions": "90 mg/kg p.o., q.d.; 8 hours after the single dose and 24 hours after the 4th dose"}, "[3]": {"assay": "Phase 1 dose escalation study: plasma pharmacokinetics", "type": "in vivo, human", "description": "The subjects were treated with placebo or at least one dose p.o., q.d. after a light breakfast for 7 days at dose levels of 200 mg, 500 mg, 750 mg and 1000 mg, respectively.\nA series of blood samples were taken during the study for the analysis of RAD1901 in plasma. Blood samples of 5 mL each were taken via an indwelling IV catheter or by direct venipuncture into tubes containing K3-EDTA as anticoagulant. Steady state was achieved by day 5 of treatment."}}, "note": "Where a name gives a salt, the structure may show the parent alone.", "data": [{"smiles": "CCNCCc1ccc(CN(CC)c2cc(OC)ccc2[C@@H]2CCc3cc(O)ccc3C2)cc1", "note": "[RAD1901, (6R)-6-(2-(N-(4-(2-(ethylamino)ethyl)benzyl)-N-ethylamino)-4-methoxyphenyl)-5,6,7,8-tetrahydronaphthalen-2-ol dihydrochloride]", "values": [{"measurement": "concentration in the intracranial tumor", "setting": "[1]", "result": "462 ± 105", "unit": "ng/g"}, {"measurement": "concentration in the plasma", "setting": "[1]", "result": "738 ± 471", "unit": "ng/mL"}, {"measurement": "proliferation marker Ki67 (in words)", "setting": "[2]", "result": "rapid decrease of the proliferation marker Ki67"}, {"measurement": "t1/2, Geo-Mean", "setting": "[3]; 500 mg, Day 7, N = 11", "result": 37.5, "unit": "h"}, {"measurement": "t1/2, Geo-Mean", "setting": "[3]; 750 mg, Day 7, N = 6", "result": 38.4, "unit": "h"}, {"measurement": "plasma exposure over the dose range tested (in words)", "setting": "[3]; 200 to 1000 mg", "result": "increased more than dose proportionally"}, {"measurement": "Tmax", "setting": "[3]; female, human, plasma, oral, 500 mg, Day 7, N = 11, read-out: tmax, Min, Max", "result": "2 to 6.02", "unit": "h"}, {"measurement": "steady state achieved by day of treatment", "setting": "[3]; p.o., q.d.", "result": "≤ 5", "unit": "days"}]}]}
